From ChEMBL document CHEMBL5096208, “Installation of Pargyline, a LSD1 Inhibitor, in the HDAC Inhibitory Template Culminated in the Identification of a Tractable Antiprostate Cancer Agent” (J Med Chem, 2021)

Experiments:
[1] = test system: HUVEC; experiment: Cytotoxicity against HUVEC cells assessed as reduction in cell viability at upto 10 uM incubated for 48 hrs by MTT assay; format: toxicity, cell-based; conditions: human
[2] = target: Histone deacetylase 4 (Homo sapiens, UniProt P56524); experiment: Inhibition of human HDAC4 using Boc-Lys(trifluoroacetyl)-AMC as flurogenic substrate
Sequence of Histone deacetylase 4 (P56524 whole entry): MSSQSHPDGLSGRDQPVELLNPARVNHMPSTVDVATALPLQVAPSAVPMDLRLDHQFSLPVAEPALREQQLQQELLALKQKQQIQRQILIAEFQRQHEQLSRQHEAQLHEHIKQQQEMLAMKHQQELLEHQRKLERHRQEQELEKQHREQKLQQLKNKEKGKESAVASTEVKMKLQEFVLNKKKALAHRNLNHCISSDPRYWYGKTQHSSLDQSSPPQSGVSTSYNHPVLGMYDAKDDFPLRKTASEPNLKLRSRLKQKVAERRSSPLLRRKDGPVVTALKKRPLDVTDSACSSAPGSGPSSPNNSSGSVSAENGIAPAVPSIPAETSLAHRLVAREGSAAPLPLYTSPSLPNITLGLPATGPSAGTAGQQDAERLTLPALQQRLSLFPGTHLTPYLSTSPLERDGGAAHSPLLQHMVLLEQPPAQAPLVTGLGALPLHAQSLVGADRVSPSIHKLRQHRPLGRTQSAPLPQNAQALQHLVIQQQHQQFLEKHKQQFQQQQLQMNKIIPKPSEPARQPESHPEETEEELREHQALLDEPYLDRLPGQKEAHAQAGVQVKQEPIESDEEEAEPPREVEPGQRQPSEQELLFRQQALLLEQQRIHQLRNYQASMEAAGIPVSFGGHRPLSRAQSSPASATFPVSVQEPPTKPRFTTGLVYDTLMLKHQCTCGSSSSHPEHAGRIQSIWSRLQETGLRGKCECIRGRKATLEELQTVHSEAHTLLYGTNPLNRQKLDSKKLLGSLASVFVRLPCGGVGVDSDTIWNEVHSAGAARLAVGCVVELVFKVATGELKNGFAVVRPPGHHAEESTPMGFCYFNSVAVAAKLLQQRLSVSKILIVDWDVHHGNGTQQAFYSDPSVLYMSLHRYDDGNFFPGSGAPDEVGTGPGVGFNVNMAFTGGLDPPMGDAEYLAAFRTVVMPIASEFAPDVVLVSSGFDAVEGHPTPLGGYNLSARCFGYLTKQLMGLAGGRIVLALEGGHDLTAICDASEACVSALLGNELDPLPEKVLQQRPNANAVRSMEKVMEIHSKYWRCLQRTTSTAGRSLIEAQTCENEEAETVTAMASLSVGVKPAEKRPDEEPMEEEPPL

[3] = target: Histone deacetylase 5 (Homo sapiens, UniProt Q9UQL6); experiment: Inhibition of human HDAC5 using Boc-Lys(trifluoroacetyl)-AMC as flurogenic substrate
Sequence of Histone deacetylase 5 (Q9UQL6 whole entry): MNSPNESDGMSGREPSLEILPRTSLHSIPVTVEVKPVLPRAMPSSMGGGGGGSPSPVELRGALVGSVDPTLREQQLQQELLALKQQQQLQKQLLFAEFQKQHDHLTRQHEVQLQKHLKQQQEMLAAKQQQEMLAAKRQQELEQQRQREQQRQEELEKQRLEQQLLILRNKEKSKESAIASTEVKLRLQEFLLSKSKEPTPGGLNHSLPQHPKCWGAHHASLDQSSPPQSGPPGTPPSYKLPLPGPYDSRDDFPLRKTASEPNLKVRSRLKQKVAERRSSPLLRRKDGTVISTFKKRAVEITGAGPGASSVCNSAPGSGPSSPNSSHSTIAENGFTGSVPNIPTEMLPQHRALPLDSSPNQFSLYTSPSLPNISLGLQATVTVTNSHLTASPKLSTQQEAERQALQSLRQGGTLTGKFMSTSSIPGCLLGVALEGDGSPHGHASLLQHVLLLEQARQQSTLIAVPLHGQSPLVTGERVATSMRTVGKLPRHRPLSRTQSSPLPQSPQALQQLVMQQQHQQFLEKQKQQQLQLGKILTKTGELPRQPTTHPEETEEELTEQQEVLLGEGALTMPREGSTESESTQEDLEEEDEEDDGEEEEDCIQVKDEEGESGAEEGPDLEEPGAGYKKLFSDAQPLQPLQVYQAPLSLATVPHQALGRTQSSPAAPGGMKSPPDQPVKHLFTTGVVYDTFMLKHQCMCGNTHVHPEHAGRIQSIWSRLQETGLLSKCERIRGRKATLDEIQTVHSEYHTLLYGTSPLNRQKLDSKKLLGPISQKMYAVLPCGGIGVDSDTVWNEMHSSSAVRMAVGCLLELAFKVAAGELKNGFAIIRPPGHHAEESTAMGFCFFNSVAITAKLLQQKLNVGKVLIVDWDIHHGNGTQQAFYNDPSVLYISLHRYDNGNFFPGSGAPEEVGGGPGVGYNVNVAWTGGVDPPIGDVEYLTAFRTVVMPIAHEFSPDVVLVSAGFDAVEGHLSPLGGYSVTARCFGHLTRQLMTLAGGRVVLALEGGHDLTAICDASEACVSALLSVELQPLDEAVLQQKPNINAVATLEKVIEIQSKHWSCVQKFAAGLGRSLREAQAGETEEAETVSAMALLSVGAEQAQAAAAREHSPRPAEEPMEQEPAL

[4] = target: T1, Histone deacetylase 7 (Homo sapiens, UniProt Q8WUI4); experiment: Inhibition of human HDAC7 using Boc-Lys(trifluoroacetyl)-AMC as flurogenic substrate
T1 sequence (Q8WUI4 whole entry): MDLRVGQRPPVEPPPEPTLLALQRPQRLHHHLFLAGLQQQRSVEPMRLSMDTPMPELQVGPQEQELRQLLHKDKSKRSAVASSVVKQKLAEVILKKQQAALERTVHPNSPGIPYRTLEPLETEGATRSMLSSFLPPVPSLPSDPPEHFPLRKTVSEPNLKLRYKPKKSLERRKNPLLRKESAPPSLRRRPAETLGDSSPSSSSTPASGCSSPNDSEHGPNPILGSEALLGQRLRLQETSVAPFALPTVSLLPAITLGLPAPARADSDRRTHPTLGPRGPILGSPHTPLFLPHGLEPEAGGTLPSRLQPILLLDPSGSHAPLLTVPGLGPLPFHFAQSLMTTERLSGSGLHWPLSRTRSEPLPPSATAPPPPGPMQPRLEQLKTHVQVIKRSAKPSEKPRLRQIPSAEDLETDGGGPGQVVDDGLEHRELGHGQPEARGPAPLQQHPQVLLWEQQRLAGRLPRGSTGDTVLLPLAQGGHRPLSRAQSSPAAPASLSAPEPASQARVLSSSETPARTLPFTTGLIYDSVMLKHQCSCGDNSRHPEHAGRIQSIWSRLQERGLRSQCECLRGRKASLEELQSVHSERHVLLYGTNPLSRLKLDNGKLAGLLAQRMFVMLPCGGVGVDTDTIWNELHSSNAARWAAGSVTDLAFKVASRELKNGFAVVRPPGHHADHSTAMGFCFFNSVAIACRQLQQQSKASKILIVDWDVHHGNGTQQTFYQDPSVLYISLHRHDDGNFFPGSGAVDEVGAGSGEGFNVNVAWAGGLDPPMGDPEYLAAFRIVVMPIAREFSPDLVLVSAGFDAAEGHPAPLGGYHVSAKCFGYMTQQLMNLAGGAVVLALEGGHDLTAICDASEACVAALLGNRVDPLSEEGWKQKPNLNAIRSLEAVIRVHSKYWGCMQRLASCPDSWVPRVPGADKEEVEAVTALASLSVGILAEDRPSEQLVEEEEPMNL

[5] = species: Homo sapiens; experiment: Selectivity ratio of IC50 for human HDAC5 to IC50 for human HDAC6
[6] = species: Homo sapiens; experiment: Selectivity ratio of IC50 for human HDAC8 to IC50 for human HDAC6
[7] = target: T2, Amine oxidase [flavin-containing] A (Homo sapiens, UniProt P21397); experiment: Inhibition of human full length recombinant MAO-A expressed in insect cells using kynuramine as substrate
T2 sequence (P21397 whole entry): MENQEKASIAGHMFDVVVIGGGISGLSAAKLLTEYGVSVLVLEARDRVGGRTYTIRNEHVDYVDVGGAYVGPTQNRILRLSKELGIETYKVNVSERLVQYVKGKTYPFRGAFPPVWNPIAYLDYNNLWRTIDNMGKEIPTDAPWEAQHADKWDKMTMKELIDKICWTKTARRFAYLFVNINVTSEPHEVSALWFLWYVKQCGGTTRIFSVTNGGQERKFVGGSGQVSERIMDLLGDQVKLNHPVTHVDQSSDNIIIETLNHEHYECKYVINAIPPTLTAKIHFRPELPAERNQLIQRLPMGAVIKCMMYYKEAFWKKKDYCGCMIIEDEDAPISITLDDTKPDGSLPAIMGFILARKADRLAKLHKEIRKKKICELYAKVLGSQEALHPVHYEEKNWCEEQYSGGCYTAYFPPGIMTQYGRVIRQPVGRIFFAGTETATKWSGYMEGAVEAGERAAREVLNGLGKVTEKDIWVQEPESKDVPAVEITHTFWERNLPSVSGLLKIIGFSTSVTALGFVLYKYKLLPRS

[8] = Clearance in Sprague-Dawley rat at 2 mg/kg, iv administered as single dose through tail vein measured upto 24 hrs post dose by UPLC-MS/MS analysis; format: ADME, organism-based; conditions: in vivo
[9] = Tmax in Sprague-Dawley rat at 25 mg/kg, po administered once via gavage measured upto 24 hrs post dose by UPLC-MS/MS analysis; format: ADME, organism-based; conditions: in vivo
[10] = Oral bioavailability in Sprague-Dawley rat at 25 mg/kg administered once via gavage measured upto 24 hrs post dose by UPLC-MS/MS analysis; format: ADME, organism-based; conditions: in vivo
[11] = Metabolic stability in human hepatocyte assessed as parent compound remaining at 10 uM by LC-MS/MS analysis; format: ADME, cell-based; conditions: hepatocytes, read-out: Stability
[12] = Metabolic stability in human hepatocyte assessed as half life at 10 uM by LC-MS/MS analysis; format: ADME, cell-based; conditions: hepatocytes
[13] = test system: DU-145; experiment: Antitumor activity against human DU-145 cells xenografted in athymic nude mouse assessed as tumor growth inhibition at 100 mg/kg, po administered twice daily and measured upto 60 days by caliper method relative to control; format: functional; conditions: DU-145, 1440 h, time <= 60 day, read-out: TGI

IC50 [2]: > 10 µM
IC50 [3]: 13.4 µM
IC50 [4]: > 10 µM
Ratio IC50 [5]: 670
Ratio IC50 [6]: 10.5
IC50 [7]: 0.79 µM
clearance [8]: 30 L/h/kg
Tmax [9]: 0.5 h
bioavailability [10]: 11.8%
remaining at 10 µM [11]: 100%
half-life at 10 µM [12]: 13.3 h
Structure (SMILES): C#CCN(C)Cc1cccc(NC(=O)CCCCCCC(=O)NO)c1
Activity [1]: Non-Toxic
inhibition in vivo at 100 mg/kg [13]: 73.6%
